{
  "source": "patent US20220357341A1",
  "about": "“COMPOSITIONS AND METHODS FOR AN IL-17 TARGET ENGAGEMENT ASSAY WITH SMALL MOLECULE MODULATORS” (Janssen Pharmaceutica NV, priority 2019, published 2022)",
  "molecules": {"B1": {"name": "mAb4538 (Janssen Biotech, Inc.) (antibody, human IgG1, lambda, V domains shown)", "VH": "QVQLQQSGPGLVKPSQTLSLTCAISGDSVSSSSAAWGWIRQSPSRGLEWLGRISYRSKWYNDYAVSVKSRITINPDTSKNQFSLQLNSVTPEDTAVYYCAREVDSMYYSYFDIWGQGTLVTVSS", "VL": "EIVLTQSPATLSLSPGERATLSCRASQNVWAFYLAWYQQKPGQAPRLLIYGASNRATGIPARFSGSGSGTDFTLTISSLEPEDFAVYYCQQYRSTLSLTFGQGTKVEIKG", "notes": "also called human mAb4538 antibody"}},
  "data": [
    {"biological_target": "T1, IL-17 (Homo sapiens, UniProt Q16552)", "T1 construct": "serial dilutions of recombinant IL-17 were prepared in diluent", "T1 sequence (Q16552 24-155)": "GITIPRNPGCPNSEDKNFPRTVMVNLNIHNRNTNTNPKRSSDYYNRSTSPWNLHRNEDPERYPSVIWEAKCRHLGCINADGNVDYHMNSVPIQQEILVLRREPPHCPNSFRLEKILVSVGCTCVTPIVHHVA", "test": "Free IL-17 ELISA: capture antibody of DuoSet ELISA kit DY317 paired with mAb4538 as detection agent, IL-17 titration with 10 μM SM modulator", "assay_type": "binding", "settings": "capture antibody of DuoSet ELISA kit DY317, detection agent mAb4538 500 ng/ml, FIGS. 2A-2F", "protocol": "Two-fold and 8-point serial dilutions of recombinant IL-17 were prepared in diluent starting from 1 ng/ml, in duplicate. For testing differentiating property on SM modulators, IL-17 calibration samples were prepared in the presence of 10 μM SM modulators or vehicle control containing 0.1% DMSO. IL-17 samples were incubated for 1 hour at 37° C.\n(§1) High binding 96-well plates were coated with 100 μL/well of 4 μg/ml capture antibody in PBS overnight at room temperature. Coated plates were washed 6×400 μL/well on plate washer (Zoom HT Microplate Washer) and blocked with 300 μL/well blocker (1% BSA in PBS) at room temperature for 2.5 hours followed by 6×400 μL/well on plate washer.\nSamples were prepared by incubating titrated IL-17 with SM modulators at final concentration of 10 μM. IL-17 levels were measured in ELISA assay by adding 95 μL/well samples to the capture antibody coated plates. Plates were kept at room temperature for 30 minutes and then 5 μL/well of detecting agent were added to a final of 500 ng/mL, kept at room temperature for another 30 minutes, followed by washing 6×400 μL/well on plate washer. Development of color for measurement was performed by adding streptavidin conjugated horseradish peroxidase at 100 μL/well and incubated for 20 minutes at room temperature in the dark, followed by 6×400 μL/well on plate washer, and then addition of 100 μL/well pf substrate solution, incubated for 20 minutes at room temperature in the dark. Reaction was then stopped by addition of 50 μL/well of stop solution and plates were measured in plate reader at 450-540 nm.\n(§2) Optical density (OD) readout from plate reader (Molecular Devices Spectra Max 340fPC) were analyzed with Softmax Pro6.3 and GraphPad Prism, and plotted as dose response curve of OD values vs IL-17 concentrations.", "values": [
      {"molecule": "O=C1CNC(=O)[C@@H](Cc2ccc(NC(=O)[C@H](Cc3ccccc3Cl)NC(=O)Cc3ccccc3)cc2)NC(=O)CC2(CCCC2)CC(=O)NCCCCCN1", "note": "[Compound #5]", "detection of free IL-17 versus SM modulator-bound IL-17 (OD vs IL-17 concentration)": "detection of free IL-17, but not modulator-bound IL-17"},
      {"molecule": "C[C@H]1NC(=O)[C@@H](Cc2ccc(NC(=O)[C@H](Cc3ccccc3Cl)NC(=O)Cc3ccc(F)cc3)cc2)NC(=O)CC2(CCCC2)CC(=O)N[C@H](C(=O)O)CCCCNC1=O", "note": "[Compound #3]", "detection of free IL-17 versus SM modulator-bound IL-17 (OD vs IL-17 concentration)": "detection of free IL-17, but not modulator-bound IL-17"},
      {"molecule": "C[C@H]1NC(=O)[C@@H](Cc2ccc(NC(=O)[C@H](Cc3ccccc3Cl)NC(=O)Cc3ccc(CO)cc3)cc2)NC(=O)CC2(CCCC2)CC(=O)NCCCCCNC1=O", "note": "[Compound #4]", "detection of free IL-17 versus SM modulator-bound IL-17 (OD vs IL-17 concentration)": "detection of free IL-17, but not modulator-bound IL-17"},
      {"molecule": "O=C(CC1(CC(=O)N2CCCC2)CCCC1)NCCc1ccc(NC(=O)[C@H](Cc2ccccc2Cl)NC(=O)C(F)(F)c2ccccc2)cc1", "note": "[Compound #6]", "detection of free IL-17 versus SM modulator-bound IL-17 (OD vs IL-17 concentration)": "detection of free IL-17, but not modulator-bound IL-17"},
      {"molecule": "NC(=O)CC[C@H]1NC(=O)[C@@H](Cc2ccc(NC(=O)[C@H](Cc3ccccc3Cl)NC(=O)Cc3ccc(F)cc3)cc2)NC(=O)CC2(CCCC2)CC(=O)NCCCCCNC1=O", "note": "[Compound #2]", "detection of free IL-17 versus SM modulator-bound IL-17 (OD vs IL-17 concentration)": "detection of free IL-17, but not modulator-bound IL-17"}
    ]},
    {"biological_target": "T2, human IL-17 (interleukin 17A), recombinant, free (not bound to a small molecule modulator) (human, UniProt Q16552 24-155, limits assumed)", "T2 construct": "Recombinant IL-17 used as calibrator in the sandwich ELISAs; also called IL-17A; free IL-17", "T2 sequence (Q16552 24-155 limits assumed)": "as the sequence (Q16552 24-155) above", "test": "sandwich ELISA: plate coated with capture antibody of DuoSet DY317, IL-17A titrated in 0.1% DMSO vehicle, mAb4538 at 500 ng/mL as detection agent, streptavidin-HRP readout", "settings": "not given", "protocol": "as §1\nSamples were prepared by incubating titrated IL-17 with SM modulators at final concentration of 10 μM. IL-17 levels were measured in ELISA assay by adding 95 μL/well samples to the capture antibody coated plates. Plates were kept at room temperature for 30 minutes and then 5 μL/well of detecting agent were added to a final of 500 ng/mL, kept at room temperature for another 30 minutes, followed by washing 6×400 μL/well on plate washer. […] Reaction was then stopped by addition of 50 μL/well of stop solution and plates were measured in plate reader at 450-540 nm.\nas §2", "values": [
      {"molecule": "B1", "binding result": "binds"}
    ]}
  ]
}
